# From patent publication US12016849B2, “Magnesium picolinate compositions and methods of use” (Bonafide Health, LLC, priority 2016, dated 2024)
# Tests used:
# [1] = Stability of magnesium picolinate (hygroscopicity, storage, light); type: physicochemical
# From the text: Magnesium picolinate compositions of the invention were stable during storage at room temperature.
# [2] = system: Brain antioxidant enzyme catalase (CAT); assay: Brain antioxidant enzyme activity, commercial assay kit; type: in vivo, Wistar rats; conditions: rats, 500 mg elemental Mg/kg diet, 8 weeks; compared to magnesium oxide
# Procedure: (§1) Seven male Wistar rats per treatment arm (age: 8 week, weight: 180±20 g) were housed in a controlled environment with a 12:12-h light-dark cycle at 22° C. and were provided with rat chow and water ad libitum. Following a 7-day acclimatization period, animals were randomly be divided into the following groups: • 1. Control (no treatment); • 2. Control+MgO (500 mg elemental Mg/kg diet), • 3. Control+MgPic (500 mg elemental Mg/kg diet), • 4. HFD (fed with high fat diet); • 5. HFD+MgO (500 mg elemental Mg/kg diet), • 6. HFD+MgPic (500 mg elemental Mg/kg diet).
# (§2) The MgPic administered was prepared in accordance with the methods of the inventions described herein. […]
# (§3) Laboratory Analyses—Following the treatment period, plasma was extracted and used for the determination of glucose, insulin, visceral fat, magnesium, and leptin concentrations, which was performed with an automatic analyzer (Samsung). Brain antioxidant enzyme catalase (CAT) and glutathione peroxidase (GSH-Px) were measured using a commercially available assay kit (Cayman Chemical, Ann Arbor, Mich., USA) according to the manufacturer's instructions. […] The swimming pathway and latency in locating the hidden platform was recorded for each trial. […] All samples were processed to produce clear digests, and the total magnesium in each sample was measured by flame AAS (Perkin Elmer) using established and fully verified methods. […]
# [3] = system: glutathione peroxidase (GSH-Px); assay: as above; type: in vivo, Wistar rats; conditions: rats, 500 mg elemental Mg/kg diet, 8 weeks; compared to magnesium oxide
# Procedure: as §1, §2, §3
# [4] = Cerebrospinal fluid (CSF) levels of magnesium and picolinic acid, double-blind clinical study; type: in vivo; conditions: 500 mg magnesium picolinate vs control 916 mg picolinic acid and 90 mg magnesium; four and eight hours, spinal tap
# Procedure: In a double-blind clinical study, 30 subjects are divided into two groups (n=15). The control group receives a supplement containing 916 mg picolinic acid and 90 mg of magnesium. The trial group receives a supplement containing 500 mg of magnesium picolinate (46 mg of magnesium and 454 mg of picolinate), or one-half the total dose of picolinate and magnesium of the control group. CSF levels of picolinic acid (ng/mL) and serum levels of magnesium (ng/mL) are measured at four hours and eight hours via spinal tap. The mean CSF magnesium levels for the trial group are between 80-120% of the control group at each time point. The mean CSF picolinic acid levels for the trial group are between 80-120% of the control group at each time point. Thus, magnesium picolinate provides 80-120% of the brain penetration of magnesium, and 80-120% of the brain penetration of picolinic acid, relative to twice the dose of magnesium and picolinic acid alone.
# [5] = Total magnesium in rat sera, liver and brain by atomic absorption spectroscopy; type: in vivo, Wistar rats; conditions: rats, 500 mg elemental Mg/kg diet, oral, 8 weeks; compared to magnesium oxide and control
# Procedure: as §1
# (§4) The MgPic administered was prepared in accordance with the methods of the inventions described herein. All treatments were administered daily as an oral supplement per day for 8 weeks. […] The rats were subjected to several study protocols during the treatment period.
# Laboratory Analyses—Following the treatment period, plasma was extracted and used for the determination of glucose, insulin, visceral fat, magnesium, and leptin concentrations, which was performed with an automatic analyzer (Samsung). Brain antioxidant enzyme catalase (CAT) and glutathione peroxidase (GSH-Px) were measured using a commercially available assay kit (Cayman Chemical, Ann Arbor, Mich., USA) according to the manufacturer's instructions. […] Morris Water Maze—The water maze test was performed according to methods known to those of skill in the art. The water maze was conducted in a large circular black pool (160 cm in diameter) containing water (temperature at 24±2° C.) that had been colored with a nontoxic black dye to contrast the rat. A 12-cm-diameter black-colored round platform was placed 1.5 cm below the water surface. All of the rats were placed in the water maze room 1 h before the water maze trial daily. […] The swimming pathway and latency in locating the hidden platform was recorded for each trial. […] All samples were processed to produce clear digests, and the total magnesium in each sample was measured by flame AAS (Perkin Elmer) using established and fully verified methods. […]
# [6] = Solubility of the isolated product; type: physicochemical
# Procedure: Picolinic acid (3.7 g, 30 mmol) and magnesium acetate tetrahydrate (3.2 g, 15 mmol) were suspended in 25 mL of water. The slurry was stirred and heated at reflux overnight and then filtered to isolate 1.7 grams of crystalline MgPic. The remaining filtrate was cooled and evaporated to dryness, providing an additional 2.2 grams of amorphous MgPic with traces of residual acetate. The acetate was removed by washing the solid with ethanol to provide a 96% overall yield of MgPic (crystalline and amorphous). The ^1H-NMR spectrum of the product (FIG. 2) is consistent with the spectrum of a metal picolinate salt. […] The product contained acceptable trace levels of barium and other heavy metals of less than 200 ppm of each element tested. As such, embodiments of a MgPic composition may comprise less than about 200 ppm of barium and/or other heavy metals. In some embodiments, these compositions may comprise less than about 150, less than about 100, less than 50, or less than 20 ppm of barium and/or other heavy metals.
# Picolinic acid and magnesium oxide (0.5 equiv.) were added to water, giving a white, stirrable slurry. The slurry was heated to 95-100° C. for 3 hours, and more water was added, tripling the initial amount of water [note: the procedure was based on the preparation of a related magnesium salt using magnesium oxide, in which the initial slurry completely dissolved at 80-90° C. […]
# [7] = Magnesium and picolinic acid Cmax and Tmax, double-blind clinical study; type: in vivo; conditions: 500 mg magnesium picolinate vs control 916 mg picolinic acid and 90 mg magnesium
# Procedure: In a double-blind clinical study, 30 subjects are divided into two groups (n=15). The control group receives a supplement containing 916 mg picolinic acid and 90 mg of magnesium. The trial group receives a supplement containing 500 mg of magnesium picolinate (46 mg of magnesium and 454 mg of picolinate), or one-half the total dose of picolinate and magnesium of the control group. Magnesium and picolinic acid Cmax (ng/mL) and Tmax (minutes) are measured in each subject. […] Thus, magnesium picolinate provides 80-120% of the maximum serum concentration of magnesium and picolinic acid relative to twice the dose of magnesium alone, or relative to twice the dose of picolinic acid alone. The mean magnesium and picolinic acid Tmax for the trial group are between 50-80% of the control group at each time point. Thus, magnesium picolinate delivers the maximum amount of bioavailable magnesium and picolinic acid in 50-80% less time relative to twice the dose of magnesium alone, or relative to twice the dose of picolinic acid alone.
# [8] = Magnesium and picolinic acid AUC0→∞, double-blind clinical study; type: in vivo; conditions: 500 mg magnesium picolinate vs control 916 mg picolinic acid and 90 mg magnesium
# Procedure: (§5) In a double-blind clinical study, 30 subjects are divided into two groups (n=15). The control group receives a supplement containing 916 mg picolinic acid and 90 mg of magnesium. The trial group receives a supplement containing 500 mg of magnesium picolinate (46 mg of magnesium and 454 mg of picolinate), or one-half the total dose of picolinate and magnesium of the control group. Magnesium and picolinic acid AUC0→∞ (ng·h/mL) are measured in each subject. The mean magnesium and picolinic acid AUC0→∞ for the trial group are between 80-120% of the control group at each time point.
# male Wistar rats [9] = assay: Morris water maze; type: in vivo
# Procedure: as §1, §2, §3
# male Wistar rats [10] = assay: Laboratory analyses after 8 weeks of treatment (glucose, insulin, visceral fat, leptin); type: in vivo; conditions: 500 mg elemental Mg/kg diet, oral
# Procedure: as §1, §4
# Laboratory Analyses—Following the treatment period, plasma was extracted and used for the determination of glucose, insulin, visceral fat, magnesium, and leptin concentrations, which was performed with an automatic analyzer (Samsung). Brain antioxidant enzyme catalase (CAT) and glutathione peroxidase (GSH-Px) were measured using a commercially available assay kit (Cayman Chemical, Ann Arbor, Mich., USA) according to the manufacturer's instructions. […] Morris Water Maze—The water maze test was performed according to methods known to those of skill in the art. The water maze was conducted in a large circular black pool (160 cm in diameter) containing water (temperature at 24±2° C.) that had been colored with a nontoxic black dye to contrast the rat. A 12-cm-diameter black-colored round platform was placed 1.5 cm below the water surface. All of the rats were placed in the water maze room 1 h before the water maze trial daily. The rats were given a maximum time of 60 s to find the hidden platform, and they were allowed to remain on the platform for 30 s. […] The rats were given a daily session of four trials per day for six consecutive days. The swimming pathway and latency in locating the hidden platform was recorded for each trial. On the seventh day, the time taken to reach the quadrant and the number of crossings of the target quadrant was tested with the platform removed. […] It is noted that rats fed a high fat diet experience diminished memory function. […] Atomic Absorption Spectroscopy—Rat sera, liver, brains were removed and the cerebral cortex and hippocampus were dissected for analysis after the treatment period. The tissues were stored at −70° C. until analysis using atomic absorption spectroscopy (AAS). […] All samples were processed to produce clear digests, and the total magnesium in each sample was measured by flame AAS (Perkin Elmer) using established and fully verified methods. […]
# [11] = Serum levels of magnesium and picolinic acid, double-blind clinical study; type: in vivo; conditions: 500 mg magnesium picolinate vs control 916 mg picolinic acid and 90 mg magnesium; at 1, 4, 6 and 8 hours
# Procedure: as §5, with “Serum levels of” for “Magnesium and”, “(ng/mL) and serum levels of magnesium (ng/mL)” for “AUC0→∞ (ng·h/mL)”, “at one hour, four hours, six hours, and eight hours.” for “in each subject.”, “mean serum” for “mean”, “levels” for “and picolinic acid AUC0→∞”, “point. The mean serum picolinic acid levels for the trial group are between 80-120% of the control group at each time point.” for “point.”
# [12] = compared to control specimens and those given magnesium oxide
smiles,measurement,setting,value
"O=C(O)c1ccccn1 [amorphous solid, magnesium picolinate]",signs of degradation,[1]; after 30 days at 75% relative humidity and 40° C.,no signs of degradation
same,signs of degradation,[1]; after 60 days at 40% relative humidity and 25° C.,no signs of degradation
same,hygroscopicity,[1]; as measured by weight,not hygroscopic
same,stability / color change on exposure to light,[1],did not change color
"O=C(O)c1ccccn1 [MgPic, magnesium picolinate]",brain antioxidant enzyme (CAT) activity (FIG. 7A),[2],superior improvements of increasing brain antioxidant enzyme (CAT) activity
same,brain antioxidant enzyme (GSH-Px) activity (FIG. 7B),[3],superior improvements of increasing brain antioxidant enzyme (GSH-Px) activity
same,"mean CSF magnesium levels, relative to control group",[4],80-120%
same,"mean CSF picolinic acid levels, relative to control group",[4],80-120%
same,magnesium levels in brain (FIG. 4A-4C),[5],substantially improved magnesium levels
same,magnesium levels in liver (FIG. 4A-4C),[5],substantially improved magnesium levels
same,magnesium levels in serum (FIG. 4A-4C),[5],substantially improved magnesium levels
same,solubility in water,"[6]; product of Example 2, clear and colorless solution",readily soluble in water
same,solubility in ethanol/water,[6]; product of Example 13,soluble in ethanol/water
same,stability during storage,[1]; 25° C./40% relative humidity,stable
same,stability during storage,[1]; 40° C./75% relative humidity,stable
same,stability / color change on exposure to light,[1]; listed as MgPic composition,stable on exposure to light
same,stability during storage,[1]; room temperature,stable
same,"mean magnesium Cmax, relative to control group",[7],80-120%
same,"mean magnesium Tmax, relative to control group",[7],50-80%
same,"mean picolinic acid Cmax, relative to control group",[7],80-120%
same,"mean picolinic acid Tmax, relative to control group",[7],50-80%
same,"mean magnesium AUC0→∞, relative to control group",[8],80-120%
same,"mean picolinic acid AUC0→∞, relative to control group",[8],80-120%
same,memory function: time taken to reach the quadrant with the hidden platform (FIG. 5),"male Wistar rats [9]; rats fed a high fat diet and rats fed the control diet, 500 mg elemental Mg/kg diet",improved memory function
same,memory function (FIG. 6),"male Wistar rats [9]; rats fed a high fat diet, compared to rats administered magnesium oxide",improvements
same,glucose (FIG. 4D-4E),male Wistar rats [10]; [12],reduced amounts
same,insulin (FIG. 4D-4E),male Wistar rats [10]; [12],reduced amounts
same,leptin secretion (FIG. 4G),male Wistar rats [10]; compared to magnesium oxide,unexpectedly superior reduction of leptin secretion
same,visceral fat (FIG. 4F),male Wistar rats [10]; compared to magnesium oxide,unexpectedly improved reduction of visceral fat
same,"mean serum magnesium levels, relative to control group",[11],80-120%
same,"mean serum picolinic acid levels, relative to control group",[11],80-120%
